{
  "source": "ChEMBL document CHEMBL5604062",
  "about": "“ASAP - ZIKV NS2B-NS3 protease fluorescence dose response” (2024)",
  "note": "Where “and” joins values, the source holds several entries; their conditions need not be identical. Identical values can stand only once.",
  "data": [
    {"target": "Nonstructural protein 3 (Zika virus, UniProt A0A024AXB9)", "sequence (A0A024AXB9 whole entry)": "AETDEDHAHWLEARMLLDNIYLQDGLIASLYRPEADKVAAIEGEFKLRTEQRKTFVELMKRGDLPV", "assay": "Functional biochemical assay to identify treatments for viral infectious disease that targets Zika NS2B-NS3 protease. Utilizing a direct enzyme activity measurement method, reading the fluorescence intensity is used to characterize the relative potency of inhibitors as IC50.", "set-up": "species or system PRVABC59", "values": [
      {"smiles": "C=CC[C@H](Nc1cc([C@H]2CCOC2)ccn1)c1cc(C2CC2)n(C)n1", "IC50": "> 25000 nM"},
      {"smiles": "CO[C@H]1C[C@H](n2cc3c(C(=O)Nc4ccc5c(c4)CNC5)cc(Cl)cc3n2)C1", "IC50": "219 nM"},
      {"smiles": "O=C(Nc1ccc2c(c1)CNC2)c1cc(F)cc(-c2ccnc3c2CCO3)c1", "IC50": "1190 nM"},
      {"smiles": "COc1ccc(OC)c([C@H]2CCCN2C(=O)Nc2ccc3c(c2)CNC3)c1", "IC50": "> 25000 nM"},
      {"smiles": "Fc1cc(CNc2ccc3c(n2)CNC3)c2cn[nH]c2c1", "IC50": "> 25000 nM"},
      {"smiles": "Cc1c(C(=O)Nc2cc(-c3cccnc3)ccn2)cnn1C1CC1", "IC50": "> 25000 nM"},
      {"smiles": "CNC(=O)[C@H](Nc1ccc2c(c1)CNC2)c1cc(Cl)cc2[nH]c(-c3ccccc3)nc12", "IC50": "29 nM and 13 nM"},
      {"smiles": "COc1cc(C(=O)Nc2ccc3c(c2)CNC3)cc2ccoc12", "IC50": "917 nM"},
      {"smiles": "NC[C@H]1OCCc2sc(C(=O)Nc3cc(-c4cccnc4)ccn3)cc21", "IC50": "> 25000 nM"},
      {"smiles": "O=C(Nc1cc([C@H]2CCOC2)ccn1)c1cc(F)cc2[nH]ncc12", "IC50": "> 25000 nM"},
      {"smiles": "Nc1n[nH]c2cc(C(=O)Nc3ccc4c(c3)CNC4)ccc12", "IC50": "> 25000 nM"},
      {"smiles": "CCCn1cc2c(C(=O)Nc3ccc4c(c3)CNC4)cc(Cl)cc2n1", "IC50": "67 nM and 36 nM"},
      {"smiles": "O=C(Nc1cc([C@H]2CCOC2)ccn1)c1ccc2scnc2c1", "IC50": "> 25000 nM"},
      {"smiles": "CC(C)NC(=O)[C@H](Nc1ccc2c(c1)CN(C)C2(C)C)c1cc(Cl)cc2[nH]ncc12", "IC50": "3830 nM"},
      {"smiles": "O=C(Nc1ccc2c(c1)CN[C@H]2c1ccccc1)c1cc(F)cc2[nH]ncc12", "IC50": "1890 nM"},
      {"smiles": "O=C1CCc2c(cccc2C(=O)Nc2ccc3c(c2)CNC3)N1", "IC50": "960 nM"},
      {"smiles": "CCCCNC(=O)[C@H](Nc1ccc2c(c1)CNC2)c1cc(Cl)cc(C2CC2)c1", "IC50": "57 nM and 30 nM"},
      {"smiles": "O=S(=O)(Nc1ccc2c(c1)CNC2)c1cccc2[nH]ncc12", "IC50": "> 25000 nM"},
      {"smiles": "O=C(NCC(F)F)[C@H](Nc1ccc2c(c1)CNC2)c1cc(Br)cc2[nH]ccc12", "IC50": "77 nM and 44 nM"},
      {"smiles": "O=C(Nc1ccc2c(c1)CNC2)c1cccc2c1[C@]1(CCNC1)C(=O)N2", "IC50": "113 nM"},
      {"smiles": "Cc1ncc(-c2cc(F)cc(C(=O)Nc3ccc4c(c3)CNC4)c2)s1", "IC50": "71 nM and 52 nM"},
      {"smiles": "CO[C@H](C)Cn1cc2c(C(=O)Nc3ccc4c(c3)CNC4)cc(Cl)cc2n1", "IC50": "364 nM"},
      {"smiles": "O=C(Nc1ccc2c(c1)CNC2)c1cc(F)cc(-c2c[nH]c(=O)c(F)c2)c1", "IC50": "73 nM and 43 nM"},
      {"smiles": "COc1cc(C(=O)Nc2ccc3c(c2)CNC3)cc2cnn(C)c12", "IC50": "> 25000 nM"},
      {"smiles": "O=C(Nc1cc([C@H]2CCOC2)ccn1)c1cc(Cl)cc2[nH]ncc12", "IC50": "> 25000 nM"},
      {"smiles": "O=C(Nc1cc2c(cc1C1CC1)CNC2)c1cc(F)cc2[nH]ncc12", "IC50": "92 nM and 46 nM"},
      {"smiles": "C#C[C@H](Nc1cc([C@H]2CCOC2)ccn1)c1cc(C2CC2)n(C)n1", "IC50": "> 25000 nM"},
      {"smiles": "CC(C)NC(=O)[C@H](Nc1ccc2c(c1)CN(CC(F)F)C2)c1cc(Cl)cc2[nH]ncc12", "IC50": "> 25000 nM"},
      {"smiles": "O=C(Nc1ccc2c(c1)CNC2)c1cc(F)cc(/C=C/c2ccccc2)c1", "IC50": "165 nM"},
      {"smiles": "Cn1ncc2c(C(=O)Nc3ccc4c(c3)CNC4)cc(Cl)cc21", "IC50": "47 nM and 27 nM"},
      {"smiles": "O=C(Nc1cc(-c2cccnc2)ccn1)c1cc2n(c1)CCC2", "IC50": "> 25000 nM"},
      {"smiles": "O=C(Nc1ccc2c(c1)CN[C@H]2CCO)c1cc(F)cc2[nH]ncc12", "IC50": "116 nM"},
      {"smiles": "Cc1cnccc1-c1cc(NC(=O)c2cc(F)cc3[nH]ncc23)cc2c1CNC2", "IC50": "116 nM"},
      {"smiles": "Cc1cc(-c2cc(F)cc(C(=O)Nc3ccc4c(c3)CNC4)c2)[nH]n1", "IC50": "90 nM and 55 nM"},
      {"smiles": "Cn1cc2c(C(=O)Nc3ccc4c(c3)CNC4)cc(Cl)cc2n1", "IC50": "159 nM"},
      {"smiles": "O=C(Nc1cc([C@H]2CCOC2)ccn1)c1cc(F)c2[nH]ccc2c1", "IC50": "> 25000 nM"},
      {"smiles": "CS(=O)(=O)N1CC[C@]2(C1)C(=O)Nc1cccc(C(=O)Nc3ccc4c(c3)CNC4)c12", "IC50": "369 nM"},
      {"smiles": "COc1ccc([C@H]2C[C@H](C)CN2C(=O)Nc2ccc3c(c2)CNC3)cc1", "IC50": "> 25000 nM"},
      {"smiles": "CSCCCNC(=O)[C@H](Nc1ccc2c(c1)CNC2)c1cc(Cl)cc(C2CC2)c1", "IC50": "126 nM"},
      {"smiles": "CC(C)(C)c1noc2nc(C(=O)Nc3ccc4c(c3)CNC4)ccc12", "IC50": "> 25000 nM"},
      {"smiles": "O=C(Nc1ccc2c(c1)CNC2)c1ccc2c(Br)csc2c1", "IC50": "2190 nM"},
      {"smiles": "C=C[C@H]1NCc2cc(NC(=O)c3cc(F)cc4[nH]ncc34)ccc21", "IC50": "359 nM"},
      {"smiles": "O=C(Nc1ccc2c(c1)CNC2)c1cc(F)cc(-c2ccncc2)c1", "IC50": "215 nM"}
    ]}
  ]
}
